Test results from ChEMBL document CHEMBL1201862, “PubChem BioAssay data set” (2004).
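Five compound concentrations were applied to cells in 96-well plates for 48 hours; endpoints were derived by simple linear interpolation of the resulting dose-response curve. GI50: concentration for 50% inhibition of growth.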 Active and inactive are the calls of the source. Cut-off read from the data, not from the text of the source: active = GI50 up to about 1.1 µM and inactive = higher.

Key:
Experiment in all cases: NCI anticancer screen, dose series, 48 h
LOX IMVI = test system: LOX IMVI
SR = test system: SR
HOP-62 = test system: HOP-62
SF-539 = test system: SF-539
HT-29 = test system: HT-29
CCRF-CEM = test system: CCRF-CEM
CAKI-1 = test system: CAKI-1
SNB-75 = test system: SNB-75
EKVX = test system: EKVX
SF-295 = test system: SF-295
HCT-116 = test system: HCT-116
COLO 205 = test system: COLO 205
DU-145 = test system: DU-145
NCI-H522 = test system: NCI-H522
SK-MEL-28 = test system: SK-MEL-28
PC-3 = test system: PC-3
IGROV-1 = test system: IGROV-1
OVCAR-8 = test system: OVCAR-8
SW-620 = test system: SW-620
TK-10 = test system: TK-10

Row | SMILES | GI50 (LOX IMVI) | GI50 (SR) | GI50 (HOP-62) | GI50 (SF-539) | GI50 (HT-29) | GI50 (CCRF-CEM) | GI50 (CAKI-1) | GI50 (SNB-75) | GI50 (EKVX) | GI50 (SF-295) | GI50 (HCT-116) | GI50 (COLO 205) | GI50 (DU-145) | GI50 (NCI-H522) | GI50 (SK-MEL-28) | GI50 (PC-3) | GI50 (IGROV-1) | GI50 (OVCAR-8) | GI50 (SW-620) | GI50 (TK-10)
1 | CC(=O)Oc1ccc(/C=C/C(=O)NCCOC(=O)/C=C/c2ccc(OC(C)=O)c(OC(C)=O)c2)cc1OC(C)=O | 13.9 µM (inactive) | 14.1 µM (inactive) | 21.9 µM (inactive) | 35.7 µM (inactive) | 25.6 µM (inactive) | 0.571 µM (active) | 32.8 µM (inactive) | 20.1 µM (inactive) | 34.7 µM (inactive) | 23.7 µM (inactive) | 14.5 µM (inactive) | 42.5 µM (inactive) | 20.6 µM (inactive) | 8.97 µM (inactive) | 34.4 µM (inactive) | 34 µM (inactive) | 33 µM (inactive) | 25.2 µM (inactive) | 19.3 µM (inactive) | 23 µM (inactive)
2 | Clc1ccc(C2=CC(c3ccccc3)N3C(=N[C@H]4CCCC[C@@H]43)N2)cc1 (stereo not given in full) | 6.46 µM (inactive) | 2.14 µM (inactive) | – | 6.08 µM (inactive) | 2.39 µM (inactive) | 4.94 µM (inactive) | 13.9 µM (inactive) | 3.48 µM (inactive) | 4.47 µM (inactive) | 7.67 µM (inactive) | 3.03 µM (inactive) | 1.77 µM (inactive) | 8.41 µM (inactive) | – | 2.79 µM (inactive) | 6.56 µM (inactive) | 3.39 µM (inactive) | 2.7 µM (inactive) | 3.74 µM (inactive) | 7.5 µM (inactive)
3 | CCC(=O)C(C(C)/C=C/CCSc1ccccc1)C(O)CCCCCC(=O)OC (stereo not given) | 81.3 µM (inactive) | 32.9 µM (inactive) | > 100 µM (inactive) | > 100 µM (inactive) | > 100 µM (inactive) | 38.6 µM (inactive) | 67.5 µM (inactive) | > 100 µM (inactive) | > 100 µM (inactive) | > 100 µM (inactive) | > 100 µM (inactive) | > 100 µM (inactive) | > 100 µM (inactive) | 89.3 µM (inactive) | > 100 µM (inactive) | 84.1 µM (inactive) | > 100 µM (inactive) | > 100 µM (inactive) | > 100 µM (inactive) | > 100 µM (inactive)
4 | C=C(C)C1CC/C(C)=C/CCC2(C)OC2CC/C(CO)=C\C1O (stereo not given) | > 100 µM (inactive) | 36.9 µM (inactive) | > 100 µM (inactive) | 67 µM (inactive) | > 100 µM (inactive) | 19.1 µM (inactive) | > 100 µM (inactive) | 45.7 µM (inactive) | 91.4 µM (inactive) | 40.9 µM (inactive) | > 100 µM (inactive) | 47.6 µM (inactive) | > 100 µM (inactive) | – | > 100 µM (inactive) | 64.3 µM (inactive) | 68.1 µM (inactive) | > 100 µM (inactive) | > 100 µM (inactive) | > 100 µM (inactive)
5 | CC(C)(CN)SCc1ccccc1 | > 100 µM (inactive) | > 100 µM (inactive) | > 100 µM (inactive) | > 100 µM (inactive) | > 100 µM (inactive) | > 100 µM (inactive) | > 100 µM (inactive) | > 100 µM (inactive) | > 100 µM (inactive) | > 100 µM (inactive) | > 100 µM (inactive) | > 100 µM (inactive) | > 100 µM (inactive) | > 100 µM (inactive) | > 100 µM (inactive) | > 100 µM (inactive) | > 100 µM (inactive) | > 100 µM (inactive) | > 100 µM (inactive) | > 100 µM (inactive)
6 | O=C(c1no[n+]([O-])c1C(=O)c1csc2ccccc12)c1csc2ccccc12 | 1.25 µM (inactive) | 0.106 µM (active) | 9.33 µM (inactive) | 2.61 µM (inactive) | 3.64 µM (inactive) | 0.0834 µM (active) | 0.82 µM (active) | 15.1 µM (inactive) | 3.55 µM (inactive) | 14.6 µM (inactive) | 8.85 µM (inactive) | 3.06 µM (inactive) | 17.9 µM (inactive) | 0.652 µM (active) | 4.09 µM (inactive) | 3.13 µM (inactive) | 1.4 µM (inactive) | 3.09 µM (inactive) | 2.21 µM (inactive) | 1.99 µM (inactive)
7 | O=C1Nc2nnc(S)n2NC12c1ccccc1-c1ccccc12 | 58.9 µM (inactive) | 33 µM (inactive) | > 100 µM (inactive) | > 100 µM (inactive) | > 100 µM (inactive) | – | 57.3 µM (inactive) | > 100 µM (inactive) | > 100 µM (inactive) | > 100 µM (inactive) | 24.2 µM (inactive) | > 100 µM (inactive) | > 100 µM (inactive) | > 100 µM (inactive) | > 100 µM (inactive) | > 100 µM (inactive) | 96.6 µM (inactive) | > 100 µM (inactive) | > 100 µM (inactive) | > 100 µM (inactive)
8 | O=C(CC(C(=O)c1cccs1)c1ccsc1)c1ccsc1 (stereo not given) | 22.8 µM (inactive) | 32.6 µM (inactive) | 56.9 µM (inactive) | 27.5 µM (inactive) | 36.6 µM (inactive) | 29 µM (inactive) | – | 25.6 µM (inactive) | 38 µM (inactive) | 24.6 µM (inactive) | 27.4 µM (inactive) | 18.2 µM (inactive) | 44.8 µM (inactive) | 20.4 µM (inactive) | 50.5 µM (inactive) | 29 µM (inactive) | 54.1 µM (inactive) | 39.4 µM (inactive) | 29.7 µM (inactive) | > 100 µM (inactive)
9 | CCOC(=O)C1Cc2ccc(C)cc2C1=O (stereo not given) | 62.5 µM (inactive) | 31.7 µM (inactive) | > 100 µM (inactive) | > 100 µM (inactive) | > 100 µM (inactive) | 34 µM (inactive) | > 100 µM (inactive) | > 100 µM (inactive) | > 100 µM (inactive) | > 100 µM (inactive) | > 100 µM (inactive) | > 100 µM (inactive) | > 100 µM (inactive) | – | 23.8 µM (inactive) | > 100 µM (inactive) | 70.6 µM (inactive) | > 100 µM (inactive) | 88.1 µM (inactive) | > 100 µM (inactive)
10 | CCOC(=O)NC(C(F)(F)F)(C(F)(F)F)P(=O)(OCC)OCC | 12.4 µM (inactive) | > 10 µM (inactive) | 78.9 µM (inactive) | – | 27.5 µM (inactive) | 2.71 µM (inactive) | – | 19.9 µM (inactive) | – | 51.2 µM (inactive) | 31 µM (inactive) | 38.6 µM (inactive) | > 100 µM (inactive) | 17.4 µM (inactive) | 43.4 µM (inactive) | 22.8 µM (inactive) | 40.6 µM (inactive) | 36.6 µM (inactive) | 17.9 µM (inactive) | 82 µM (inactive)
11 | Cc1cn(S(=O)(=O)c2ccccc2)c2c(OCc3ccccc3)cc(NS(C)(=O)=O)cc12 | 11.4 µM (inactive) | 4.98 µM (inactive) | 50.2 µM (inactive) | 38.8 µM (inactive) | 4.42 µM (inactive) | – | 72.3 µM (inactive) | 22.9 µM (inactive) | 5.35 µM (inactive) | 14.7 µM (inactive) | 9.12 µM (inactive) | 10.3 µM (inactive) | 31.3 µM (inactive) | 18.8 µM (inactive) | 52.8 µM (inactive) | 3.92 µM (inactive) | 33 µM (inactive) | 32 µM (inactive) | 17.8 µM (inactive) | > 85.9 µM (inactive)
12 | CN(C)c1ccc(C2CC(c3ccc4ccccc4c3O)=NN2c2ccc([N+](=O)[O-])cc2[N+](=O)[O-])cc1 (stereo not given) | – | 12.6 µM (inactive) | 75.5 µM (inactive) | 50.9 µM (inactive) | 39.4 µM (inactive) | 22.3 µM (inactive) | > 100 µM (inactive) | > 100 µM (inactive) | – | 40.1 µM (inactive) | 37.5 µM (inactive) | 38.7 µM (inactive) | 64.9 µM (inactive) | 21 µM (inactive) | 56 µM (inactive) | 23.6 µM (inactive) | 26.2 µM (inactive) | 56 µM (inactive) | 36.3 µM (inactive) | > 100 µM (inactive)
13 | NCCCc1nonc1C(=O)O | > 100 µM (inactive) | > 100 µM (inactive) | > 100 µM (inactive) | > 100 µM (inactive) | > 100 µM (inactive) | > 100 µM (inactive) | > 100 µM (inactive) | > 100 µM (inactive) | > 100 µM (inactive) | > 100 µM (inactive) | > 100 µM (inactive) | > 100 µM (inactive) | > 100 µM (inactive) | – | > 100 µM (inactive) | > 100 µM (inactive) | > 100 µM (inactive) | > 100 µM (inactive) | > 100 µM (inactive) | > 100 µM (inactive)
14 | CC1(C)OC(=O)C(C#N)=C1C[n+]1ccccc1 | > 10 µM (inactive) | > 10 µM (inactive) | > 10 µM (inactive) | > 10 µM (inactive) | > 10 µM (inactive) | > 10 µM (inactive) | > 10 µM (inactive) | > 10 µM (inactive) | > 10 µM (inactive) | > 10 µM (inactive) | – | > 10 µM (inactive) | > 10 µM (inactive) | > 10 µM (inactive) | > 10 µM (inactive) | > 10 µM (inactive) | > 10 µM (inactive) | > 10 µM (inactive) | > 10 µM (inactive) | > 10 µM (inactive)
15 | CC(=O)OCC1OC(N2C(=O)CC(N)=Nc3ccccc32)C(OC(C)=O)C(OC(C)=O)C1OC(C)=O (stereo not given) | 37.5 µM (inactive) | 41 µM (inactive) | 81.7 µM (inactive) | 23.2 µM (inactive) | 53.8 µM (inactive) | > 100 µM (inactive) | > 100 µM (inactive) | 29.8 µM (inactive) | 83.2 µM (inactive) | 74 µM (inactive) | 81.8 µM (inactive) | 15.1 µM (inactive) | 63.4 µM (inactive) | – | 38.4 µM (inactive) | 42.6 µM (inactive) | 45.1 µM (inactive) | 32.4 µM (inactive) | 87.5 µM (inactive) | 75 µM (inactive)
